Data taken from US20130245081A1, “Compositions and Methods for Treating Amyotrophic Lateral Sclerosis” (priority 2009, published 2013).
Several values for one entry are separate records, joined by “and”; a condition that tells them apart may be missing. Equal values may be shown once. Read-outs that look alike come from different tables or passages of the source.

Key:
[1] = tested on: healthy adult subjects
Protocol: In both studies, safety was assessed by periodic measurement of vital signs, 12-lead ECGs, physical examinations, clinical laboratory parameters, and reports of adverse events. Baseline vital signs and changes from baseline were summarized with descriptive statistics by body position (supine or standing), dose level, and time point. Additionally, the number of subjects with substantial increases or decreases in blood pressure (>20 mmHg) and heart rate (>15 bpm) were tabulated by dose level and visit. The arithmetic mean of 3 readings of blood pressure and heart rate at each visit/position was used for the analysis. The shift from baseline for physical examination results was tabulated by body system, visit, and dose level. The overall ECG findings were summarized using a shift table comparing post-baseline visits to baseline. Laboratory parameters were summarized at each timepoint, including changes from baseline by dose level. In addition, abnormal values outside normal ranges were flagged. All safety data were summarized with descriptive statistics by dose group.
In the first study, subjects remained in the clinic for 72 hours after dosing, during which time they were monitored for safety and tolerability, and later returned to the clinic for a brief follow-up visit 7 days post-dose for clinical and laboratory assessments. In the second study, end-of-treatment evaluations were performed on Day 9, approximately 48 hours after the final dose, and subjects were discharged from the clinic for an outpatient visit on Day 10 and a follow-up visit on Day 14.

[2] = tested on: patients with ALS; details: for subjects who died (incl. after discontinuation): double-blind period through Week 28; for total number of deaths: first 24-week randomized active treatment period

CCCN[C@@H]1CCc2nc(N)sc2C1 [dexpramipexole, (6R)-2-amino-4,5,6,7-tetrahydro-6-(propylamino)benzothiazole]
drug effect on vital signs, physical examinations, ECG, hematology and urinalysis ([1]; either study): no evidence
serious adverse events or adverse events that led to early discontinuation ([1]; either study): No serious adverse events
subjects reporting dizziness ([1]; first study): 3 subjects
subjects reporting headache ([1]; second study): 5 subjects
safety and tolerability ([1]; single doses up to 300 mg, multiple doses up to 150 mg twice daily for 4½ days): safe and well tolerated
Unadjusted Slope Estimate, Bulbar ([2]; 50 mg): −0.364
Unadjusted Slope Estimate, Fine ([2]; 50 mg): −0.311
Unadjusted Slope Estimate, Gross ([2]; 50 mg): −0.305
Unadjusted Slope Estimate, Resp ([2]; 50 mg): −0.270
Zero Imputation Slope Estimate, Bulbar ([2]; 50 mg): −0.578
Zero Imputation Slope Estimate, Fine ([2]; 50 mg): −0.440
Zero Imputation Slope Estimate, Gross ([2]; 50 mg): −0.390
Zero Imputation Slope Estimate, Resp ([2]; 50 mg): −0.575
joint rank test of survival and ALSFRS-R (generalized Gehan Wilcoxon test) ([2]; 50 mg versus 300 mg, through Week 28, p=0.046): statistically significant difference
McGill SIS, Mean (SE) ([2]; 50 mg, Endpoint of Part 2): 5.9 (0.38)
McGill SIS, Mean Δ (SE) from baseline ([2]; 50 mg, Endpoint of Part 2): −0.5 (0.27)
McGill SIS, Median Δ ([2]; 50 mg, Endpoint of Part 2): 0.0
Upright Vital Capacity, Mean (SE) ([2]; 50 mg, Endpoint of Part 2): 62.2 (4.19) % predicted
Upright Vital Capacity, Mean Δ (SE) from baseline of Part 2 ([2]; 50 mg, Endpoint of Part 2): −14.6 (3.54) % predicted
Upright Vital Capacity, Median Δ ([2]; 50 mg, Endpoint of Part 2): −11.5 % predicted
McGill SIS, Mean (SE) ([2]; 50 mg, Week 8): 6.2 (0.37)
McGill SIS, Mean Δ (SE) from baseline ([2]; 50 mg, Week 8): −0.2 (0.19)
McGill SIS, Median Δ ([2]; 50 mg, Week 8): 0.0
Upright Vital Capacity, Mean (SE) ([2]; 50 mg, Week 8): 73.7 (2.92) % predicted
Upright Vital Capacity, Mean Δ (SE) from baseline of Part 2 ([2]; 50 mg, Week 8): −3.2 (1.67) % predicted
Upright Vital Capacity, Median Δ ([2]; 50 mg, Week 8): −1.9 % predicted
McGill SIS, Mean (SE) ([2]; 50 mg, Week 12): 6.5 (0.34)
McGill SIS, Mean Δ (SE) from baseline ([2]; 50 mg, Week 12): −0.1 (0.20)
McGill SIS, Median Δ ([2]; 50 mg, Week 12): 0.0
Upright Vital Capacity, Mean (SE) ([2]; 50 mg, Week 12): 72.9 (3.82) % predicted
Upright Vital Capacity, Mean Δ (SE) from baseline of Part 2 ([2]; 50 mg, Week 12): −4.0 (2.19) % predicted
Upright Vital Capacity, Median Δ ([2]; 50 mg, Week 12): −3.1 % predicted
McGill SIS, Mean (SE) ([2]; 50 mg, Week 16): 6.1 (0.37)
McGill SIS, Mean Δ (SE) from baseline ([2]; 50 mg, Week 16): −0.3 (0.22)
McGill SIS, Median Δ ([2]; 50 mg, Week 16): 0.0
McGill SIS, Mean (SE) ([2]; 50 mg, Week 20): 6.1 (0.33)
McGill SIS, Mean Δ (SE) from baseline ([2]; 50 mg, Week 20): −0.7 (0.22)
McGill SIS, Median Δ ([2]; 50 mg, Week 20): −1.0
Upright Vital Capacity, Mean (SE) ([2]; 50 mg, Week 20): 75.8 (4.02) % predicted
Upright Vital Capacity, Mean Δ (SE) from baseline of Part 2 ([2]; 50 mg, Week 20): −6.0 (3.36) % predicted
Upright Vital Capacity, Median Δ ([2]; 50 mg, Week 20): −7.2 % predicted
McGill SIS, Mean (SE) ([2]; 50 mg, Week 24): 6.3 (0.43)
McGill SIS, Mean Δ (SE) from baseline ([2]; 50 mg, Week 24): −0.4 (0.23)
McGill SIS, Median Δ ([2]; 50 mg, Week 24): 0.0
McGill SIS, Mean (SE) ([2]; 50 mg, Week 28): 5.9 (0.45)
McGill SIS, Mean Δ (SE) from baseline ([2]; 50 mg, Week 28): −0.7 (0.23)
McGill SIS, Median Δ ([2]; 50 mg, Week 28): 0.0
Upright Vital Capacity, Mean (SE) ([2]; 50 mg, Week 28): 69.5 (3.79) % predicted
Upright Vital Capacity, Mean Δ (SE) from baseline of Part 2 ([2]; 50 mg, Week 28): −12.4 % predicted and −12.4 (3.00) % predicted
Upright Vital Capacity, Median Δ ([2]; 50 mg, Week 28): −10.4 % predicted
decline in ALSFRS-R scores (repeated measures mixed effect model) ([2]; 50 mg, Week 28): −7.05
subjects who died (incl. after discontinuation) ([2]; 50 mg): 9 (19%) N (%) and 9 N (%)
total number of deaths ([2]; 50 mg): 7
did not require tracheostomy and did not die ([2]; 50 mg, through Week 28): 81%
mean change from baseline in ALSFRS-R total score ([2]; 50 mg, through Week 28): −6.5
slope estimate of ALSFRS-R scores (linear mixed effects model) ([2]; 50 mg, through Week 28): −1.283
slope of ALSFRS-R total scores, zero imputed for first post-death visit ([2]; 50 mg, through Week 28): −2.05
slope of upright vital capacity (linear mixed effects, unadjusted) ([2]; 50 mg, through Week 28): −2.452
subjects with feeding tubes placed ([2]; 50 mg, through Week 28): 9 (19%) N (%)
Unadjusted Slope Estimate, Bulbar ([2]; 300 mg): −0.310
Unadjusted Slope Estimate, Fine ([2]; 300 mg): −0.211
Unadjusted Slope Estimate, Gross ([2]; 300 mg): −0.320
Unadjusted Slope Estimate, Resp ([2]; 300 mg): −0.186
Zero Imputation Slope Estimate, Bulbar ([2]; 300 mg): −0.376
Zero Imputation Slope Estimate, Fine ([2]; 300 mg): −0.238
Zero Imputation Slope Estimate, Gross ([2]; 300 mg): −0.338
Zero Imputation Slope Estimate, Resp ([2]; 300 mg): −0.255
attenuation of decline in vital capacity (adjusted slopes) ([2]; 300 mg compared with 50 mg): 21% and 18%
Unadjusted Slope Estimate, Bulbar, % reduction ([2]; 300 mg vs 50 mg): 14.84%
Unadjusted Slope Estimate, Fine, % reduction ([2]; 300 mg vs 50 mg): 32.15%
Unadjusted Slope Estimate, Gross, % reduction ([2]; 300 mg vs 50 mg): −4.92%
Unadjusted Slope Estimate, Resp, % reduction ([2]; 300 mg vs 50 mg): 31.11%
Zero Imputation Slope Estimate, Bulbar, % reduction ([2]; 300 mg vs 50 mg): 34.95%
Zero Imputation Slope Estimate, Fine, % reduction ([2]; 300 mg vs 50 mg): 45.91%
Zero Imputation Slope Estimate, Gross, % reduction ([2]; 300 mg vs 50 mg): 13.33%
Zero Imputation Slope Estimate, Resp, % reduction ([2]; 300 mg vs 50 mg): 55.65%
reduction in decline of ALSFRS-R slope, zero imputation ([2]; 300 mg vs 50 mg): 42%
smaller decline in ALSFRS-R scores (repeated measures model) ([2]; 300 mg vs 50 mg, Week 28): 19.7%
McGill SIS, Mean (SE) ([2]; 300 mg, Endpoint of Part 2): 6.1 (0.35)
McGill SIS, Mean Δ (SE) from baseline ([2]; 300 mg, Endpoint of Part 2): −0.8 (0.30)
McGill SIS, Median Δ ([2]; 300 mg, Endpoint of Part 2): −1.0
Upright Vital Capacity, Mean (SE) ([2]; 300 mg, Endpoint of Part 2): 61.1 (3.94) % predicted
Upright Vital Capacity, Mean Δ (SE) from baseline of Part 2 ([2]; 300 mg, Endpoint of Part 2): −20.3 (2.88) % predicted
Upright Vital Capacity, Median Δ ([2]; 300 mg, Endpoint of Part 2): −14.3 % predicted
McGill SIS, Mean (SE) ([2]; 300 mg, Week 8): 6.9 (0.32)
McGill SIS, Median Δ ([2]; 300 mg, Week 8): 0.0
Upright Vital Capacity, Mean (SE) ([2]; 300 mg, Week 8): 80.3 (3.20) % predicted
Upright Vital Capacity, Mean Δ (SE) from baseline of Part 2 ([2]; 300 mg, Week 8): −1.4 (0.91) % predicted
Upright Vital Capacity, Median Δ ([2]; 300 mg, Week 8): −0.8 % predicted
McGill SIS, Mean (SE) ([2]; 300 mg, Week 12): 6.5 (0.37)
McGill SIS, Mean Δ (SE) from baseline ([2]; 300 mg, Week 12): −0.4 (0.25)
McGill SIS, Median Δ ([2]; 300 mg, Week 12): 0.0
Upright Vital Capacity, Mean (SE) ([2]; 300 mg, Week 12): 78.5 (3.34) % predicted
Upright Vital Capacity, Mean Δ (SE) from baseline of Part 2 ([2]; 300 mg, Week 12): −4.2 (1.91) % predicted
Upright Vital Capacity, Median Δ ([2]; 300 mg, Week 12): −4.3 % predicted
McGill SIS, Mean (SE) ([2]; 300 mg, Week 16): 6.4 (0.33)
McGill SIS, Mean Δ (SE) from baseline ([2]; 300 mg, Week 16): −0.4 (0.23)
McGill SIS, Median Δ ([2]; 300 mg, Week 16): 0.0
McGill SIS, Mean (SE) ([2]; 300 mg, Week 20): 6.4 (0.34)
McGill SIS, Mean Δ (SE) from baseline ([2]; 300 mg, Week 20): −0.5 (0.30)
McGill SIS, Median Δ ([2]; 300 mg, Week 20): 0.0
Upright Vital Capacity, Mean (SE) ([2]; 300 mg, Week 20): 70.8 (3.77) % predicted
Upright Vital Capacity, Mean Δ (SE) from baseline of Part 2 ([2]; 300 mg, Week 20): −10.6 (1.58) % predicted
Upright Vital Capacity, Median Δ ([2]; 300 mg, Week 20): −9.0 % predicted
McGill SIS, Mean (SE) ([2]; 300 mg, Week 24): 6.3 (0.36)
McGill SIS, Mean Δ (SE) from baseline ([2]; 300 mg, Week 24): −0.7 (0.30)
McGill SIS, Median Δ ([2]; 300 mg, Week 24): 0.0
McGill SIS, Mean (SE) ([2]; 300 mg, Week 28): 6.0 (0.38)
McGill SIS, Mean Δ (SE) from baseline ([2]; 300 mg, Week 28): −0.9 (0.31)
McGill SIS, Median Δ ([2]; 300 mg, Week 28): −1.0
Upright Vital Capacity, Mean (SE) ([2]; 300 mg, Week 28): 67.3 (4.44) % predicted
Upright Vital Capacity, Mean Δ (SE) from baseline of Part 2 ([2]; 300 mg, Week 28): −15.1 % predicted and −15.1 (2.63) % predicted
Upright Vital Capacity, Median Δ ([2]; 300 mg, Week 28): −11.5 % predicted
decline in ALSFRS-R scores (repeated measures mixed effect model) ([2]; 300 mg, Week 28): −5.66
subjects who died (incl. after discontinuation) ([2]; 300 mg): 3 (7%) N (%) and 3 N (%)
total number of deaths ([2]; 300 mg): 2
did not require tracheostomy and did not die ([2]; 300 mg, through Week 28): 93%
mean change from baseline in ALSFRS-R total score ([2]; 300 mg, through Week 28): −6.2
slope estimate of ALSFRS-R scores (linear mixed effects model) ([2]; 300 mg, through Week 28): −1.021
slope of ALSFRS-R total scores, zero imputed for first post-death visit ([2]; 300 mg, through Week 28): −1.19
slope of upright vital capacity (linear mixed effects, unadjusted) ([2]; 300 mg, through Week 28): −3.067
subjects with feeding tubes placed ([2]; 300 mg, through Week 28): 6 (14%) N (%)
